Test results from US5852007A, “Cysteine and serine protease inhibitors containing D-amino acid at the P2 position, methods of making same, and methods of using same” (priority 1997, dated 1998).
Square brackets hold non-standard residues; d marks the D form. Peptide text beside a SMILES is read from it. * marks the point of attachment. Tos = Cc1ccc(S(=O)(=O)*)cc1; dΔPro = O=C(O)[C@H]1C=CCN1

What was measured:
Type in all cases: biochemical
cathepsin B = target: T1, cathepsin B (Homo sapiens, UniProt P07858); test: Inhibition of cathepsin B; conditions: Table III; 1 uM; read-out: Cat B % I @ 1 uM
T1 construct: purchased Calbiochem 219364
Experimental: (§1) Additionally,the order of reagents added to the plate was altered because both enzymes are constitutively active. Following inhibitor addition to the plates, appropriate 2× concentrated stock dilutions of the enzyme preparations were made in assay buffer and 100 μl added to each well. The assay was initiated by addition of 100 μl of 2× concentrated stock dilution of substrate in assay buffer.

[1] = target: T2, Recombinant human calpain I (Homo sapiens, UniProt P07384); test: Inhibition of calpain I activity; conditions: Table III
T2 construct: made in house
T2 sequence (P07384 1-714): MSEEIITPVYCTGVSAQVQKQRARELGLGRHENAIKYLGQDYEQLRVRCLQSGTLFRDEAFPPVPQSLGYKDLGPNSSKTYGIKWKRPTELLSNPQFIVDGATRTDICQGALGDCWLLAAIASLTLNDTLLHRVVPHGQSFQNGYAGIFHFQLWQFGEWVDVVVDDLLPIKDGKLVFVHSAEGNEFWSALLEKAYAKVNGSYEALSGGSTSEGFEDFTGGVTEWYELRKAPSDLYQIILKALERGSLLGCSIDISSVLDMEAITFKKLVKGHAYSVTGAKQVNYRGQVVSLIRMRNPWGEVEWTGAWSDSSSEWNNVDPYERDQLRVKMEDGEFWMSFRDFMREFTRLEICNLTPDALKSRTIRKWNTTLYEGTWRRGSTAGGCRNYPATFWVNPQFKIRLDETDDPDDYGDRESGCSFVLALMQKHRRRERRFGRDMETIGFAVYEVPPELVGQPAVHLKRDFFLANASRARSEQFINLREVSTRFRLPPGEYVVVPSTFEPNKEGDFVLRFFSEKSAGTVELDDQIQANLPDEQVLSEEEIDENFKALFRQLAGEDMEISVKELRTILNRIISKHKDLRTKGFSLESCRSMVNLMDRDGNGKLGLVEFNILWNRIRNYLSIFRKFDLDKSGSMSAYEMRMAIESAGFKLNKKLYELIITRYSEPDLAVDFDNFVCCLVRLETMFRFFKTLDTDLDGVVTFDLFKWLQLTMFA

cathepsin L = target: T3, cathepsin L (Homo sapiens, UniProt P07711); test: Inhibition of cathepsin L; conditions: Table III; 1 uM; read-out: Cat L % I @ 1 uM
T3 construct: purchased Calbiochem 219402
Experimental: as §1

α-chymotrypsin = target: T4, α-chymotrypsin (Bos taurus, UniProt P00766); test: Inhibition of α-chymotrypsin; conditions: Table III; 10 uM; read-out: Chymotrypsin % I @ 10 uM
T4 construct: purchased Sigma Chem. Co. C-3142
Summary of the method: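 Enzyme added to inhibitor first, then reaction started with substrate; no calcium activation needed as enzyme is constitutively active. Fluorogenic substrate hydrolysis read every 5 min up to 30 min ([…]).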

thrombin = target: T5, thrombin (Homo sapiens, UniProt P00734); test: Inhibition of thrombin; conditions: Table III; 10 uM; read-out: Thrombin % I @ 10 uM
T5 construct: purchased Sigma Chem. Co. T-7009

T3 sequence (P07711 114-288 limits assumed): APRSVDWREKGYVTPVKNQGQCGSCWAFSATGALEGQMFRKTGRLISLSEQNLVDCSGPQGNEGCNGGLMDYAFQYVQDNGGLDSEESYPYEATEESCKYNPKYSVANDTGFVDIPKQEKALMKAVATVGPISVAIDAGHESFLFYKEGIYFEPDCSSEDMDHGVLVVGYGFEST
T3 sequence (P07711 292-333 limits assumed): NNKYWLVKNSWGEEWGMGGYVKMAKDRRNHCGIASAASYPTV

Row | SMILES | inhibition at 1 µM (cathepsin B) [%] | inhibition at 0.1 µM [1] [%] | inhibition at 1 µM (cathepsin L) [%] | inhibition at 10 µM (α-chymotrypsin) [%] | inhibition at 10 µM (thrombin) [%] | IC50 [1] [nM]
1 | Cc1ccc(S(=O)(=O)O[C@H]2C[C@H](C(=O)N[C@H](C=O)Cc3ccccc3)N(S(=O)(=O)c3ccccc3)C2)cc1 [Compound 113] | 47 | 11 | 94 | 0 | 0 | –
2 | Cc1ccc(S(=O)(=O)N2C[C@@H](N=[N+]=[N-])C[C@@H]2C(=O)N[C@H](C=O)Cc2ccccc2)cc1 [Compound 114] | 24 | 85 | 100 | 9 | 3 | –
3 | CS(=O)(=O)N[C@H](COCc1ccccc1)C(=O)N[C@H](C=NNC(N)=O)Cc1ccccc1 [Compound 115] | 47 | 0 | 94 | 0 | 0 | –
4 | C[N+]([O-])=C[C@H](Cc1ccccc1)NC(=O)[C@@H](COCc1ccccc1)NS(C)(=O)=O [Compound 116] | 96 | 4 | 100 | 0 | 0 | –
5 | CS(=O)(=O)N[C@H](COCc1ccccc1)C(=O)N[C@H](C=[N+]([O-])Cc1ccccc1)Cc1ccccc1 [Compound 117] | 95 | 21 | 100 | 0 | 0 | –
6 | CS(=O)(=O)N[C@H](COCc1ccccc1)C(=O)N[C@H](C=NO)Cc1ccccc1 [Compound 118] | 33 | 31 | 99 | 8 | 0 | –
7 | CON=C[C@H](Cc1ccccc1)NC(=O)[C@@H](COCc1ccccc1)NS(C)(=O)=O [Compound 119] | 68 | 19 | 98 | 3 | 0 | –
8 | Cc1ccc(S(=O)(=O)N2CCC[C@@H]2C(=O)N[C@H](C=O)Cc2ccccc2)cc1 [Compound 120] (Tos-[dP]-Phe-aldehyde) | 50 | 87 | 65 | 12 | 0 | 14
9 | Cc1ccc(S(=O)(=O)O[C@@H]2C[C@H](C(=O)N[C@H](C=O)Cc3ccccc3)N(S(=O)(=O)c3ccc(C)cc3)C2)cc1 [Compound 121] | 83 | 28 | 17 | 18 | 3 | –
10 | CS(=O)(=O)N[C@H](COCc1ccccc1)C(=O)N[C@H](C=O)CCCCNS(=O)(=O)c1ccccc1 [Compound 122] | 100 | 98 | 100 | 13 | 0 | 3
11 | CCNC(=O)OC[C@H](Cc1ccccc1)NC(=O)[C@H]1CCCN1S(=O)(=O)c1ccc(C)cc1 [Compound 123] | 16 | 7 | 14 | 2 | 0 | –
12 | CS(=O)(=O)N[C@H](COCc1ccccc1)C(=O)N[C@@H](Cc1ccccc1)C(O)CCc1ccccc1 (stereo partly shown) [Compound 124] | 27 | 20 | 17 | 0 | 2 | –
13 | CS(=O)(=O)N[C@H](COCc1ccccc1)C(=O)N[C@@H](Cc1ccccc1)C(=O)CCc1ccccc1 [Compound 125] | 47 | 0 | 39 | 0 | 4 | –
14 | CS(=O)(=O)N[C@H](COCc1ccccc1)C(=O)N[C@H]1CCCCNC1=O [Compound 126] | 2 | 5 | 16 | 6 | 0 | –
15 | CC(C)(C)OC(=O)N1CCCC[C@H](NC(=O)[C@@H](COCc2ccccc2)N(C(=O)OC(C)(C)C)S(C)(=O)=O)C1=O [Compound 127] | 36 | 6 | 7 | 1 | 0 | –
16 | CS(=O)(=O)N[C@H](COCc1ccccc1)C(=O)N[C@@H](Cc1ccccc1)C(O)S(=O)(=O)O (stereo partly shown) [Compound 128] | 99 | 89 | 100 | 1 | 0 | 8
17 | Cc1ccc(S(=O)(=O)N2C[C@@H](C#N)C[C@@H]2C(=O)N[C@H](C=O)Cc2ccccc2)cc1 [Compound 129] | 64 | 73 | 100 | 6 | 1 | –
18 | Cc1ccc(S(=O)(=O)N2CC=C[C@@H]2C(=O)N[C@H](C=O)Cc2ccccc2)cc1 [Compound 130] (Tos-[dΔPro]-Phe-aldehyde) | 62 | 90 | 97 | 0 | 9 | 10
19 | CS(=O)(=O)N[C@H](COCc1ccccc1)C(=O)N[C@@H](Cc1ccccc1)C1OCCS1 (stereo partly shown) [Compound 131] | 21 | 6 | 55 | 0 | 11 | –
20 | CS(=O)(=O)N[C@H](COCc1ccccc1)C(=O)N[C@@H](Cc1ccccc1)C1N(c2ccccc2)CCN1c1ccccc1 [Compound 132] | 78 | 63 | 100 | 0 | 0 | –
21 | CN1CCN(C)C1[C@H](Cc1ccccc1)NC(=O)[C@@H](COCc1ccccc1)NS(C)(=O)=O [Compound 133] | 100 | 93 | 100 | 1 | 0 | 13
22 | CCOC(OCC)[C@H](Cc1ccccc1)NC(=O)[C@@H](COCc1ccccc1)NS(C)(=O)=O [Compound 134] | 19 | 0 | 98 | 10 | 0 | –
23 | CS(=O)(=O)N[C@H](COCc1ccccc1)C(=O)N[C@@H](Cc1ccccc1)C(O)OCc1ccccc1 (stereo partly shown) [Compound 135] | 98 | 91 | 100 | 4 | 0 | 11
